The values that follow come from PMC10252614 (International Journal of Molecular Sciences, 2023).

For one data set, the target named is T1, human AChE (hAChE) (Homo sapiens, UniProt P22303).
T1 construct: made in house
Put plainly: hAChE inhibition, modified Ellman's method. It is filed as biochemical. As to conditions: read-out: % of AChE inhibition. Here is the method: (§1) N-Methylpropargylamine-quinazolines were tested for their inhibitory potency against human AChE (hAChE) and human BChE (hBChE) enzymes using the modified spectrophotometric method of Ellman et al..
(§2) The human recombinant BChE and AChE were prepared at the Department of Toxicology and Military Pharmacy (Faculty of Military Health Sciences, Hradec Kralove, Czech Republic). 5,5′-dithiobis(2-nitrobenzoic acid) (Ellman’s reagent, DTNB), phosphate buffer (PB, pH 7.4), acetylthiocholine (ATC) and butyrylthiocholine (BTC), were purchased from Sigma-Aldrich, Prague, Czech Republic. For measuring purposes, polystyrene Nunc 96-well microplates with a flat-bottom shape (ThermoFisher Scientific, Waltham, MA, USA) were utilized. All the assays were carried out in 0.1 M KH2PO4/K2HPO4 buffer, pH 7.4. Enzyme solutions were prepared at 2.0 units/mL in 2 mL aliquots. The assay medium consisted of a 0.1 M phosphate buffer (pH 7.4), 0.01 M DTNB, the enzyme, and 0.01 M substrate (ATC/BTC iodide solution). Concentration 1 µM was tested and the % of inhibition was calculated. Tested compounds were pre-incubated for 5 min. The reaction was started by immediate addition of 20 μL of the substrate. […] Each concentration was assayed in triplicate. Software GraphPad Prism 5 (San Diego, CA, USA) was used for the statistical data evaluation.
Background: Ellman's reagent forms a yellow product with free thiols.

The target of the next data set is T2, human BChE (hBChE) (Homo sapiens, UniProt P06276).
T2 construct: made in house
T2 sequence (P06276 29-602): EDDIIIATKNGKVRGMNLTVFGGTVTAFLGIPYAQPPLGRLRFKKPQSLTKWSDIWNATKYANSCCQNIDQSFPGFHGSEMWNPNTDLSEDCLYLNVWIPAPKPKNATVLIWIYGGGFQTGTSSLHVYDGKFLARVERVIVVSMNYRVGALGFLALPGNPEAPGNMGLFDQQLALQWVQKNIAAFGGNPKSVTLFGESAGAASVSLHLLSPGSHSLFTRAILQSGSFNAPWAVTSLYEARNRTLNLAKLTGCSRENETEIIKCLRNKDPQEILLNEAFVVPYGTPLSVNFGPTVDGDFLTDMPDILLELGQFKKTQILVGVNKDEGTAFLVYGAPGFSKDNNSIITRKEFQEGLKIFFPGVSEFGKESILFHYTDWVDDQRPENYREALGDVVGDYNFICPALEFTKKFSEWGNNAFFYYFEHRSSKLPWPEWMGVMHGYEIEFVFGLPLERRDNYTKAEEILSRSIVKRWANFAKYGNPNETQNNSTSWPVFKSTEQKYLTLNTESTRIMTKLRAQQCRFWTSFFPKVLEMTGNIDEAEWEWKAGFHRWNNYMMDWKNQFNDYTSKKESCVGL
Put plainly: hBChE inhibition, modified Ellman's method. The class given is biochemical. As to conditions: 10^-6 M. Here is the method: as §1, §2

For the next data set, the target named is T3, hMAO-B (Homo sapiens, UniProt P27338).
T3 construct: purchased Merck (Prague, Czech Republic)
T3 sequence (P27338 1-520): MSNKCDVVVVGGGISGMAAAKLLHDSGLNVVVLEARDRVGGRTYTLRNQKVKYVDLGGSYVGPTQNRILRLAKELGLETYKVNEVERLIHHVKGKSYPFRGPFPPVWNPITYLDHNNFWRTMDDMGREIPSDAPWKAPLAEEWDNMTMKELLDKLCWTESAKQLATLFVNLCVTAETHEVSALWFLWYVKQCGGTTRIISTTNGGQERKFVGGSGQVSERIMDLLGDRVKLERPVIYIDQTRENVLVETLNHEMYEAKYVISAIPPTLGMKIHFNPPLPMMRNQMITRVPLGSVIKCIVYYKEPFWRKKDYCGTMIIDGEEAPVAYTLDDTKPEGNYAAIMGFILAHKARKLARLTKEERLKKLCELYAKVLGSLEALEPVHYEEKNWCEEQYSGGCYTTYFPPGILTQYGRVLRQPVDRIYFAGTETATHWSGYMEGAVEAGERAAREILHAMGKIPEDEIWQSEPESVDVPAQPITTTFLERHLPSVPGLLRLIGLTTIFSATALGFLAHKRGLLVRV
Put plainly: in vitro inhibition of hMAO-B, kynuramine fluorescence assay. It is filed as biochemical. Here is the method:
The hMAO-A and hMAO-B enzymes were purchased from Merck (Prague, Czech Republic). […] The mixture was pre-incubated at 37 °C for 15 min and subsequently substrate kynuramine was added to the final concentration of 100 µM. The final volume of reaction mixture was 0.1 mL. The whole reaction mixture was incubated at 37 °C for 30 min. The reaction was stopped by the addition of 20 µL 4M NaOH.

The next data set addresses T4, GluN1/GluN2B receptor (Homo sapiens, UniProt Q05586+Q13224).
T4 construct: expressed in transfected cells; host or cells: HEK293
Put plainly: whole-cell patch-clamp on HEK293 cells expressing GluN1/GluN2B NMDAR. It is filed as cell-based. As to conditions: HEK293, 10 µM, −60 mV, ± SEM (n = 5–6), 100% = full inhibition; read-out: Relative inhibition (RI) of GluN1/GluN2B NMDAR. Here is the method: We tested the derivatives by the whole-cell patch-clamp method at a concentration of 10 μM under steady-state conditions in the presence of the saturating concentrations of NMDAR (co-)agonists (L-glutamate and glycine). […] Whole-cell patch-clamp recordings were performed using an Axopatch 200B amplifier (Molecular Devices, LLC., San Jose, CA, USA) at a holding membrane potential of −60 mV. HEK293 cells were co-transfected with DNA vectors encoding human versions of the GluN1-4a (GluN1) and GluN2B subunits and green fluorescent protein (GFP) in a 1:1:1 ratio using 0.9 μL PolyMag reagent (OZ Biosciences SAS, Marseille, France) in 50 μL Opti-MEM I [56, 57]. After 15 min on a magnetic plate, HEK293 cells were trypsinized and resuspended in Opti-MEM I medium containing 1% FBS, 2 mM MgCl2 and 3 mM kynurenic acid (to reduce cell death caused by activation of NMDARs). Electrophysiological measurements were performed 24–48 h after completion of transfection at room temperature. The extracellular recording solution (ECS) contained (in mM): 160 NaCl, 2.5 KCl, 10 HEPES, 10 D-glucose, 0.2 EDTA, and 0.7 CaCl2 (pH 7.3 with NaOH). […] A microprocessor-controlled rapid perfusion system with a time constant for solution exchange around the recorded cell of ~20 ms was used. Currents were low-pass filtered at 2 kHz using an eight-pole Bessel filter, digitized at 5 kHz, and recorded using the pCLAMP 10 program (Molecular Devices, LLC., San Jose, CA, USA). The co-agonist glycine (100 µM) was applied throughout the recording, and the agonist L-glutamate (1 mM) was used to elicit responses of GluN1/GluN2B receptors.
Background: In patch-clamp work, channel activity is measured electrically.

Data set [1] can be described thus: PAMPA prediction of BBB permeability. The class given is in vitro ADME. Here is the method:
The assay validation was performed using standard compounds whose CNS status is experimentally known from in vivo conditions.
PAMPA (the parallel artificial membrane-permeability assay) is a high-throughput screening tool applicable for prediction of the passive transport of potential drugs across the blood–brain barrier (BBB). In this study, it was used as a non-cell-based in vitro assay carried out in a coated 96-well membrane filter. The filter membrane of the donor plate was coated with PBL (Polar Brain Lipid, Avanti, USA) in dodecane (4 µL of 20 mg/mL PBL in dodecane) and the acceptor well was filled with 300 µL of PBS (pH 7.4; VA). The tested compounds were dissolved first in DMSO and subsequently diluted with PBS (pH 7.4) to final concentrations of 50–100 μM in the donor wells. […] About 300 µL of the donor solution was added to the donor wells (VD) and the donor filter plate was carefully put on the acceptor plate so that the coated membrane was “in touch” with both the donor solution and acceptor buffer. In principle, the test compound diffused from the donor well through the lipid membrane (Area = 0.28 cm^2) to the acceptor well. The concentration of the drug in both the donor and acceptor wells were assessed after 3, 4, 5, and 6 h of incubation in quadruplicate using the UV plate reader Spark (Tecan Group Ltd., Männedorf, Switzerland) at the maximum absorption wavelength of each compound. In addition, the solution of the theoretical compound concentration, simulating the equilibrium state established if the membrane were ideally permeable, was prepared and assessed as well.

Data set [2] deals with differentiated SH-SY5Y cells. Put plainly: MTT viability of differentiated SH-SY5Y. As to conditions: concentration equal to IC50 from undifferentiated model, 24 h. The class given is cell-based, human.
Protocol: Then, the differentiated SH-SY5Y cells were treated with concentrations corresponding to the IC50 values obtained from the cytotoxicity measurement using undifferentiated SH-SY5Y cells. Cells were exposed to a tested compound for 24 h. Then, the medium was replaced by a medium containing 10 μM of MTT and cells were allowed to produce formazan for another, approximately 3 h under surveillance. Thereafter, the medium was aspirated and purple crystals of MTT formazan were dissolved in 100 μL DMSO under shaking. Cell viability was assessed spectrophotometrically by the amount of formazan produced. Absorbance was measured at 570 nm with 650 nm reference wavelength on Spark (Tecan Group Ltd., Männedorf, Switzerland). The IC50 value was then calculated from the control-subtracted triplicates using non-linear regression (four parameters) of GraphPad Prism 9 software. Final IC50 and SEM values were obtained as a mean of three.
The subject of the next data set is SH-SY5Y cells. Put plainly: dehydrogenase activity, WST-1 test. The following applies: 100 µM, mean ± SD. It is filed as cell-based, human. Here is the method:
Next, we tested the effects of the compounds on intracellular dehydrogenase activity and glutathione levels. […] To evaluate the effects of the compounds on cells, we measured total intracellular dehydrogenase activity as a marker of cellular viability and glutathione levels for evaluation of oxidative stress (Table 6).
Dehydrogenase activity was evaluated by WST-1 test (Roche, Munich, Germany). The WST-1 test measures the activity of intra- and extra-mitochondrial dehydrogenases. […] The change of absorbance was measured by spectrophotometer at the wavelength of 440 nm using SPARK microplate reader (Tecan, Austria) while incubated at 37 °C. The dehydrogenase activity was expressed as the percentage of total cellular dehydrogenase activity relative to that in the control cells (control = 100%).
A general note: Tetrazolium assays rely on reduction of a dye to a coloured formazan, in cell work by metabolically active cells.

Another data set in a line: in vitro. As to conditions: human, undifferentiated SH-SY5Y cells.

What is called IC50 is the midpoint of a concentration-inhibition curve. The low end stands for inhibition by little substance, the high end for a need for much substance.

T4 sequence (Q13224 27-1484, other chains not shown): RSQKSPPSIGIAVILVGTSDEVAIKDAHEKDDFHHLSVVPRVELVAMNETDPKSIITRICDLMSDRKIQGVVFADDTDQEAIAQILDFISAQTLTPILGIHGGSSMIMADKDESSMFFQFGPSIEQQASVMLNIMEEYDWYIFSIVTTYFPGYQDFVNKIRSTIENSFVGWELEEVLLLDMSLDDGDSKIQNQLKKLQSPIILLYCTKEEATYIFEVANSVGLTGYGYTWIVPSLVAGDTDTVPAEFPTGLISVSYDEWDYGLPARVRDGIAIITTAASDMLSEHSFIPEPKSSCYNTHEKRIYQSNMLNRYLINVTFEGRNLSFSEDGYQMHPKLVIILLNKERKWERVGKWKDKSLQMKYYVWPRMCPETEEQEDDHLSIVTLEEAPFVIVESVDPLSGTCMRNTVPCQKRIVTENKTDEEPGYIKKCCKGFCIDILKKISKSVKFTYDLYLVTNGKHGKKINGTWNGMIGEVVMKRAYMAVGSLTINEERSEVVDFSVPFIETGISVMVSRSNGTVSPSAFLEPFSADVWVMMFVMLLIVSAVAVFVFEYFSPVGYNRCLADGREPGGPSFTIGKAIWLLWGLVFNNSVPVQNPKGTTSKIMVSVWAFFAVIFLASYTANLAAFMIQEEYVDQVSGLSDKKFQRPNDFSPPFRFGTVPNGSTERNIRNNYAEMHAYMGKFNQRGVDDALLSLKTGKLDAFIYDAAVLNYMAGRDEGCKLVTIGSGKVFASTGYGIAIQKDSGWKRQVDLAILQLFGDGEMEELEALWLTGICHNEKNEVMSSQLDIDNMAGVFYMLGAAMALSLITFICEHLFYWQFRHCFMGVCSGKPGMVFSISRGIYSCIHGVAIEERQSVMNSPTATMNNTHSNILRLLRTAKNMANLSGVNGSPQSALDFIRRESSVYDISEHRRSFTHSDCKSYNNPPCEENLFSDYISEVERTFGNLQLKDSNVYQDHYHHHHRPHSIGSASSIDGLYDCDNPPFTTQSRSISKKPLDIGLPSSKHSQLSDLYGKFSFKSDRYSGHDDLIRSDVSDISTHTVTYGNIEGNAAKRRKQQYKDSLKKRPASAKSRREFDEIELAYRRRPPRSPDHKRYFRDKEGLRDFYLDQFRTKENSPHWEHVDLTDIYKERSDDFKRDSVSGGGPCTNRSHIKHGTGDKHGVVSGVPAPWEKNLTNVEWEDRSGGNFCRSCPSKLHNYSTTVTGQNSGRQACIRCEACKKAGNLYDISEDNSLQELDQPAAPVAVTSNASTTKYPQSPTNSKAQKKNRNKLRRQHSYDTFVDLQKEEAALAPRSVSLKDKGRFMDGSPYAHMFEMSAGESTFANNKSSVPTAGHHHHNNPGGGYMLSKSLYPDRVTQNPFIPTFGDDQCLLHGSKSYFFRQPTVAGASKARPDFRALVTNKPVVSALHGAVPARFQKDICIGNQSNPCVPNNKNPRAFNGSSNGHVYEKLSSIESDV
T1 sequence (P22303 32-614): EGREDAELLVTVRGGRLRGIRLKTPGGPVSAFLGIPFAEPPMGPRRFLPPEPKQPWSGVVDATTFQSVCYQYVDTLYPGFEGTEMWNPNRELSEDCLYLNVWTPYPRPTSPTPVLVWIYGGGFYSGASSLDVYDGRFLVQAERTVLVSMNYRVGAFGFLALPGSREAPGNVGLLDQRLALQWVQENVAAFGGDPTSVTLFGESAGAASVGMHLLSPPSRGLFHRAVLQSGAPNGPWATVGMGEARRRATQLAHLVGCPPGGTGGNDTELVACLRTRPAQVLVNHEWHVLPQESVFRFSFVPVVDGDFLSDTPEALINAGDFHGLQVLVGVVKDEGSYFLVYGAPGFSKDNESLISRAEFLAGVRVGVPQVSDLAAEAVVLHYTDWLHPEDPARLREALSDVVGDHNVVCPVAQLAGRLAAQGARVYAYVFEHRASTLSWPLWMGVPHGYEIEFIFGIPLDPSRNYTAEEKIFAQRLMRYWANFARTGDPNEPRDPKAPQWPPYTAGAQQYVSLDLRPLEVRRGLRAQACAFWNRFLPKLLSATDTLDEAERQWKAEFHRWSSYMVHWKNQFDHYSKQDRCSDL

On to `C#CCN(C)c1nc(NCCCC)c2ccc(Cl)cc2n1` [II-6e, N4-butyl-7-chloro-N2-methyl-N2-(prop-2-yn-1-yl)quinazoline-2,4-diamine], for which the values for the inhibition at 1 µM at human AChE (hAChE) and against human BChE (hBChE) were 9% and 0%, respectively. Moreover, at hMAO-B, the IC50 was determined as 3.65 ± 0.14 µM. In addition, the “selectivity profile hMAO-A vs hMAO-B (in words)” value at hMAO-B is given as “hMAO-B selective inhibitors”. Besides, the inhibition at 10 µM at GluN1/GluN2B receptor turned out to be 33.8 ± 2.56%. Further, the “BBB penetration by PAMPA (in words)” value in data set [1] was “did not penetrate the artificial barrier”. For the same compound, in data set [1] (PAMPA class), the “CNS (+/−)” value was “CNS (−) (CNS (−) (low BBB permeation predicted): Pe (×10^−6 cm s^−1) < 2.0)”. Besides, the Papp in data set [1] (PAMPA, PBS pH 7.4, read-out: Pe ± SEM) was 0.9 ± 0.43 ×10⁻⁶ cm/s. The “effect on viability of differentiated SH-SY5Y (in words)” value in data set [2] is on record as “increased toxicity”. The “Dehydrogenase Activity (% of Control)” value in the data set on SH-SY5Y cells (6 h) is 63 ± 9 % of Control; in the data set with SH-SY5Y cells (24 h), 48 ± 9 % of Control. The same compound registered a concentration for half-maximal inhibition (IC50) at 24 h in “in vitro” of 67.1 ± 3.81 µM.
